Where two headings read alike, the source gives them in different places.
Key:
[1] = target: T1, RORγ ligand binding domain (LBD) (Homo sapiens, UniProt P51449); assay: TR-FRET Activity Assay (ligand sensing, RORγ-LBD / coactivator peptide interaction, LANCE); assay type: biochemical
T1 construct: made in house; host or cells: E. coli BL-21 (BL3), vector pDEST15
T1 sequence (P51449 269-508 limits assumed): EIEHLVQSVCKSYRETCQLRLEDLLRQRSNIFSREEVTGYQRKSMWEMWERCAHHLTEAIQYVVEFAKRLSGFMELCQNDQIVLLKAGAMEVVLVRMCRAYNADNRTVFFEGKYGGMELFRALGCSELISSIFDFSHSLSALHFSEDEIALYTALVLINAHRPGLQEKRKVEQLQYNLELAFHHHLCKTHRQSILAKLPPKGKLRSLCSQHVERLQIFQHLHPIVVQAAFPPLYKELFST

RORγ = target: T2, RORγ (UniProt P51449); assay: RORγ Gal4 Reporter Gene Assay in 293T cells (firefly and renilla luciferase); assay type: cell-based, human
T2 sequence (P51449 1-518): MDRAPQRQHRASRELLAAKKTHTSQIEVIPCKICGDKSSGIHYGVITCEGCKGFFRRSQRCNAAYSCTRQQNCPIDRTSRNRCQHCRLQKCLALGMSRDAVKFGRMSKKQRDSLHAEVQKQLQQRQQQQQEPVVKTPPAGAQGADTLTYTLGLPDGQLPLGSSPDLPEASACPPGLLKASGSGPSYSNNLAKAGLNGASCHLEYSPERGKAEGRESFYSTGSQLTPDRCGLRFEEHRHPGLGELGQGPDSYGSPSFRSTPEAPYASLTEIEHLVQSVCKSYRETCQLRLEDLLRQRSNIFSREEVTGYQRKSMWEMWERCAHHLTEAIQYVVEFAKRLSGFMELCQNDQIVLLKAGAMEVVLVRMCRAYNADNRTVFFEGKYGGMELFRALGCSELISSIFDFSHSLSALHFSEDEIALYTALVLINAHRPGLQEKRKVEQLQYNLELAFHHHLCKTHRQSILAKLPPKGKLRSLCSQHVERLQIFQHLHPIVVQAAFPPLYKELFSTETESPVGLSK

[2] = first value of the cell FRET/FF/REN, TR-FRET activity assay, read-out: pIC50 (FRET) (converted)
[3] = second value of the cell, Gal4 reporter gene assay in 293T cells, firefly luciferase
[4] = third value of the cell, Gal4 reporter gene assay in 293T cells, renilla normalised luciferase

SMILES | IC50 [1, 2] [nM] | pIC50 (FF) (RORγ; [3]) | pIC50 (REN) (RORγ; [4]) | IC50 [1] [nM] | pIC50 (FF) (RORγ) | pIC50 (REN) (RORγ)
Cc1c(C(=O)NC2CCOCC2)cc(-c2cc3c(c(C(C)(C)C)c2)OCCC3=O)n1CC1CCCCC1 [17/104] | 501 | 6.5 | 6.7 |  |  | 
CC(C)(C)NS(=O)(=O)c1ccc(-c2cc(C(=O)NCCC(C)(C)C(=O)O)c(C(N)=O)n2CC2CCCCC2)cc1C(F)(F)F [17/169] | 794 | 6.7 | 6.7 |  |  | 
Cc1cc(C(C)(C)C)cc(-c2cc(C(=O)N[C@H]3C[C@H](C(=O)O)C3)c(C)n2CC2CCCCC2)c1OC(F)F [17/194] | 12600 | 6.4 | 6.5 |  |  | 
Cc1c(C(=O)NCC(C)(C)O)cc(-c2cc(C(C)(C)C)cc(C(C)(C)C)c2OC(F)F)n1CC1CCCCC1 [17/191] |  |  |  | 1260 | 5.9/7.0/6.9 | 5.9/7.0/6.9
Cc1c(C(=O)NCC(C)(C)O)cc(-c2cc(C(=O)NC(C)(C)C)nc(C3(C)CC3)n2)n1CC1CCCCC1 [17/373] | 5010 | < 4.7 | < 4.7 |  |  | 
Cc1c(C(=O)NCCC(C)(C)C(=O)O)cc(-c2ccc(S(=O)(=O)NC(C)(C)C)c(C(C)(C)C)c2)n1CC1CCCCC1 [17/163] | 1580 | 7.0 | 7.2 |  |  | 
Cc1c(C(=O)NC2COC2)cc(-c2cc(C(=O)N(C)C(C)(C)C)nc(C(C)(C)C)c2)n1CC1CCCCC1 [6/1] | 2000 | 6.7 | 6.7 |  |  | 
Cc1c(C(=O)NCC2(C(N)=O)CCOCC2)cc(-c2cc(C(C)(C)O)cc(C3(C)CC3)c2)n1CC1CCCCC1 [17/318] | 2000 | 7.7 | 7.6 |  |  | 
Cc1c(C(=O)NCC(C)(C)NS(C)(=O)=O)cc(-c2cc(C(C)(C)C)cc(C3(C)CC3)c2)n1CC1CCCCC1 [17/67] |  |  |  | 251 | 6.6/7.7/7.5 | 6.6/7.7/7.5
Cc1c(C(=O)NCC2CCS(=O)(=O)C2)cc(-c2cc(C(C)(C)C)c3c(c2)C2(CCO3)CC2)n1CC1CCCCC1 (stereo not drawn) [17/12] | 200 | 7.2 | 7.4 |  |  | 
Cc1c(C(=O)NC2COC2)cc(C2=NN(C(=O)C3CCCCC3)C3(CCCCC3)C2)n1CC1CCCCC1 [24/2] | 6310 | < 4.7 | < 4.7 |  |  | 
Cc1c(C(=O)NCCS(C)(=O)=O)cc(-c2ccc(S(=O)(=O)NC(C)(C)C)c(C(C)(C)C)c2)n1CC1CCCCC1 [1/130] | 794 | 6.8 | 6.8 |  |  | 
Cc1c(C(=O)NCC2CCS(=O)(=O)CC2)cc(-c2ccc(S(=O)(=O)NC(C)(C)C)c3ccccc23)n1CC1CCCCC1 [17/265] | 316 | 7.9 | 8.0 |  |  | 
Cc1c(C(=O)NCCC(C)(C)C(=O)O)cc(-c2ccc(S(=O)(=O)NC(C)(C)C)c(OC(F)(F)F)c2)n1CC1CCCCC1 [17/172] | 398 | 7.5 | 7.5 |  |  | 
Cc1c(C(=O)NC2(CO)CC2)cc(-c2cc(C(C)(C)C)cc(C(C)(C)C)c2)n1CC1CCCCC1 [1/58] |  |  |  | 631 | 6.2/6.2/6.2 | 6.2/6.2/6.2
COCc1c(C(=O)NC2CCOCC2)cc(-c2ccc(S(=O)(=O)NC(C)(C)C)c(C(C)(C)C)c2)n1CC1CCCCC1 [1/29] |  |  |  | 631 | 6.2/7.2/7.2 | 6.2/7.2/7.2
Cc1c(C(=O)NC2COC2)cc(-c2cc(C(C)(C)C)cc(C(C)(C)C)c2)n1CC1CCCCCC1 [1/115] | 251 | 7.3 | 7.3 |  |  | 
COC(=O)C(C)(C)CCNC(=O)c1cc(-c2cc(C(C)(C)C)cc(C3(C)CC3)c2)n(CC2CCCCC2)c1C [17/153] | 316 | 6.7 | 6.7 |  |  | 

SMILES | IC50 [1, 2] [nM] | pIC50 (FF) (RORγ; [3]) | pIC50 (REN) (RORγ; [4]) | IC50 [1] [nM] | pIC50 (FF) (RORγ) | pIC50 (REN) (RORγ)
Cc1c(C(=O)NCCCC(=O)O)cc(-c2cc(C(C)(C)C)cc(C(C)(C)C)c2)n1CC1CCCCC1 [1/69] | 1580 | 6.8 | 6.9 |  |  | 
Cc1c(C(=O)NCC2CCS(=O)(=O)CC2)cc(-c2cc(C(C)(C)O)cc(C3(C)CC3)c2)n1CC1CCCCC1 [17/320] |  |  |  | 1580 | 5.8/7.3/7.3 | 5.8/7.3/7.3
Cc1c(C(=O)N[C@H]2C[C@H](C(=O)O)C2)cc(-c2cc(C(C)(C)C)cc(C(C)(C)C)c2OC(F)F)n1CC1CCCCC1 [17/193] | 2510 | 6.9 | 7.0 |  |  | 
Cc1cc(C(C)(C)C)cc(-c2cc(C(=O)NCC(C)(C)O)c(C)n2CC2CCCCC2)c1OC(F)F [17/192] | 1580 | 6.5 | 6.4 |  |  | 
Cc1c(C(=O)NC2COC2)cc(-c2ccc(S(=O)(=O)NC(C)(C)C)c(C(C)(C)C)c2)n1CC1CCCCC1 [9/4] | 631 | 7.1 | 7.2 |  |  | 
Cc1c(C(=O)N[C@H]2C[C@H](C(=O)O)C2)cc(-c2cc(C(C)(C)C)cc(C(=O)NC(C)(C)C)c2Cl)n1CC1CCCCC1 [17/368] | 7940 | 6.4 | 6.2 |  |  | 
Cc1c(C(=O)NCC(C)(C)CC(=O)O)cc(-c2ccc(S(=O)(=O)NC(C)(C)C)c(C(F)(F)F)c2)n1CC1CCCCC1 [17/134] | 398 | 7.4 | 7.7 |  |  | 
Cc1c(C(=O)NCC(C)(C)C(=O)NCCC(=O)O)cc(-c2cc(C(C)(C)C)c3c(c2)C2(CCO3)CC2)n1CC1CCCCC1 [11/3] | 1000 | 6.5 | 6.5 |  |  | 
Cc1c(C(=O)NC2CCOCC2)cc(-c2cc(C(=O)NC(C)(C)C)cc(C3(C)CC3)c2)n1CC1CCCCC1 [17/337] | 1000 | 7.7 | 7.8 |  |  | 
Cc1c(C(=O)NC2COC2)cc(-c2ccc(C(=O)N(C)CC(C)(C)C)c(C(C)(C)C)c2)n1CC1CCCCC1 [1/33] | 794 | 6.6 | 6.5 |  |  | 
Cc1c(C(=O)NC2CCOCC2)cc(-c2cc(Cl)c(S(=O)(=O)NC(C)(C)C)c(Cl)c2)n1CC1CCCCC1 [17/235] | 200 | 7.6 | 7.6 |  |  | 
Cc1c(C(=O)NCCc2noc(=O)[nH]2)cc(-c2ccc(S(=O)(=O)NC(C)(C)C)c(C(C)(C)O)c2)n1CC1CCCCC1 [17/333] | 398 | 6.4 | 6.3 |  |  | 
Cc1c(C(=O)NC2CCOCC2)cc(-c2ccc(NS(=O)(=O)C(C)(C)C)c(C(F)(F)F)c2)n1CC1CCCCC1 [17/247] | 1260 | 6.9 | 7.0 |  |  | 
Cc1c(C(=O)NCCC(C)(C)C(=O)O)cc(-c2ccc(S(=O)(=O)NC(C)(C)C)c(C(F)(F)F)c2Cl)n1CC1CCCCC1 [17/289] | 1260 | 7.1 | 7.2 |  |  | 
Cc1c(C(=O)NCCCCCS(N)(=O)=O)cc(-c2cc(C(C)(C)C)c3c(c2)C2(CCO3)CC2)n1CC1CCCCC1 [17/114] | 631 | 6.5 | 6.4 |  |  | 
Cc1c(C(=O)NC2CCOCC2)cc(-c2cc3c(c(C(C)(C)C)c2)OCCC3=NO)n1CC1CCCCC1 [18/3] | 1580 | 6.1 | 6.5 |  |  | 
Cc1c(C(=O)NCC(C)(C)C(=O)O)cc(-c2ccc(S(=O)(=O)NC(C)(C)C)c(C(F)(F)F)c2)n1CC1CCCCC1 [17/200] | 501 | 6.9 | 6.9 |  |  | 

Reference: patent US9815851B2, “Pyrrolo carboxamides as modulators of orphan nuclear receptor RAR-related orphan receptor-gamma (RORγ, NR1F3) activity and for the treatment of chronic inflammatory and autoimmune diseases” (PHENEX PHARMACEUTICALS AG, priority 2011, dated 2017)
